Measured values taken from patent US12011506B2, “Combination and uses and treatments thereof” (priority 2017, dated 2024).

Assays:
[1] = Food effect pharmacokinetics: high-fat or moderate-fat meal versus fasted (Tables 20, 21)
Source text: Cmax, AUC0-t, AUC0-∞ and AUClast are standard pharmacokinetic parameters that can be estimated manually or by using modelling software well known in the art, such as the Pharsight WinNonlin package using a non-compartmental model. The general basis for calculation of these quantities is well-known (e.g. see Rowland & Tozer (2010) Clinical Pharmacokinetics and Pharmacodynamics: Concepts and Applications ISBN 978-0781750097, or Jambhekar & Breen (2012) Basic Pharmacokinetics ISBN 978-0853699804). Typically the parameters will be assessed as the average (e.g. geometric or arithmetic mean) from within a group of at least 12 (and normally between 24 and 36) healthy human adults. Parameters should be measured in accordance with standards and practices which would be acceptable to a pharmaceutical regulatory agency such as FDA, EMA, MHLW, or WHO. The values may be based on measurements taken at appropriate intervals following the time of tablet ingestion, such as every hour, or at increasingly sparse sampling intervals, such as 1, 3, 5, 7, 9, 11, 13, 15, 20, and 24 hours after ingestion.

[2] = Excretion after a single oral dose of [14C] dolutegravir; format: in vivo, human; conditions: single oral dose of [14C] dolutegravir
[3] = Dolutegravir oral pharmacokinetics (absorption, steady state, population pharmacokinetic analyses); format: in vivo, human
CYP3A4 = CYP3A4 (Homo sapiens, UniProt P08684); conditions: cited from earlier work
CYP3A4, sequence (P08684 whole entry): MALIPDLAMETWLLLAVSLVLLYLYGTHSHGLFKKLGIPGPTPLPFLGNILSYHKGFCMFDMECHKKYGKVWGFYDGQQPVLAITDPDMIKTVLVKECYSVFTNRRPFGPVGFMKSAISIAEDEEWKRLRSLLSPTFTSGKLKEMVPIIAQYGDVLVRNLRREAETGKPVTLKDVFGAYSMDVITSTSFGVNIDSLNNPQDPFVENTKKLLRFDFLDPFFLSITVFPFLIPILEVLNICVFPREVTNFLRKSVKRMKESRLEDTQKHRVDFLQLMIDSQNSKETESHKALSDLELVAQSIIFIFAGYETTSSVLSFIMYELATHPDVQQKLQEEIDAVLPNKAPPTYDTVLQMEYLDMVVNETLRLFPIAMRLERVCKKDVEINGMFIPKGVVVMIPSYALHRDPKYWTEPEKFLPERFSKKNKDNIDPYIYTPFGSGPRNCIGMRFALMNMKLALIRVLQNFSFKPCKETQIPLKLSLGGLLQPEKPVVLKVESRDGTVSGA

cytochrome P450 CYP3A = experiment: Rilpivirine in vitro oxidative metabolism; format: in vitro ADME; conditions: in vitro experiments
[4] = Excretion after single dose oral administration of [14C] rilpivirine; format: in vivo, human; conditions: single dose oral [14C] rilpivirine
Source text: In feces, unchanged rilpivirine accounted for on average 25% of the administered dose. […] The pharmacokinetic properties of rilpivirine have been evaluated in adult healthy subjects and in adult antiretroviral treatment-naïve HIV-1-infected subjects. Exposure to rilpivirine was generally lower in HIV-1 infected subjects than in healthy subjects.

[5] = Rilpivirine oral pharmacokinetics; format: in vivo, human
[6] = high-fat meal compared with fasted conditions
[7] = moderate-fat meal compared with fasted conditions

C[C@@H]1CCO[C@H]2Cn3cc(C(=O)NCc4ccc(F)cc4F)c(=O)c(O)c3C(=O)N12 [Dolutegravir, (4R,12aS)—N-[(2,4-difluorophenyl)methyl]-7-hydroxy-4-methyl-6,8-dioxo-3,4,12,12a-tetrahydro-2H-pyrido[5,6]pyrazino[2,6-b][1,3]oxazine-9-carboxamide]
Increase of AUC(0-∞) ([1]; human, in vivo): approximately 87%
Increase of Cmax ([1]; moderate- and high-fat meals each, compared with fasted conditions): approximately 75%
Renal elimination of unchanged drug [2]: less than 1 % of the dose
Total oral dose excreted in the urine [2]: Thirty-one
Total oral dose excreted unchanged in the feces [2]: 53%
half-life ([3]; human, plasma, oral, population pharmacokinetic analyses, read-out: Terminal half-life (converted)): ~14 h
Time to pharmacokinetic steady state ([3]; once-daily dosing): ≤ 5 days
Apparent clearance (CL/F) ([3]; population pharmacokinetic analyses): 1.0 L per hour
Extent as substrate of CYP3A4 (CYP3A4): about 15%

Cc1cc(/C=C/C#N)cc(C)c1Nc1ccnc(Nc2ccc(C#N)cc2)n1 [Rilpivirine, 4-[[4-[[4-[(E)-2-cyanoethenyl]-2,6-dimethylphenyl]amino]-2-pyrimidinyl]amino]benzonitrile]
Increase of AUC(0-∞) [1, 6]: 72%
Increase of Cmax [1, 6]: 117%
Increase of AUC(0-∞) [1, 7]: 57%
Increase of Cmax [1, 7]: 89%
Metabolic pathway (cytochrome P450 CYP3A): primarily metabolized by CYP3A
Metabolic pathway (cytochrome P450 CYP3A; listed as rilpivirine): primarily undergoes oxidative metabolism mediated by the cytochrome P450 CYP3A system
Unchanged rilpivirine in urine [4]: < 1 % of dose
Radioactivity retrieved in feces ([4]; on average): 85%
Radioactivity retrieved in urine ([4]; on average): 6.1%
Unchanged rilpivirine in feces ([4]; on average): 25 % of the administered dose
half-life ([5]; human, in vivo, oral, read-out: Terminal elimination half-life (converted)): ~50 h
Exposures lower than when taken with a meal ([5]; taken with only a protein-rich nutritional drink): 50%
